# Assays:
# [1] = biological target: T1, mouse SLC26A6b (Mus musculus, UniProt Q8CIW6, R572P); test: Radiolabelled anion uptake/exchange in Xenopus oocytes expressing mouse SLC26A6b; format: cell-based
# T1 construct: Full-length mouse SLC26A6b and SLC26A 1 cDNAs were cloned into the Xenopus expression vector pGEMHE; expressed in transfected cells; host or cells: Xenopus laevis oocytes injected with in vitro transcribed cRNA (pGEMHE)
# T1 sequence (Q8CIW6 24-758 R572P limits assumed): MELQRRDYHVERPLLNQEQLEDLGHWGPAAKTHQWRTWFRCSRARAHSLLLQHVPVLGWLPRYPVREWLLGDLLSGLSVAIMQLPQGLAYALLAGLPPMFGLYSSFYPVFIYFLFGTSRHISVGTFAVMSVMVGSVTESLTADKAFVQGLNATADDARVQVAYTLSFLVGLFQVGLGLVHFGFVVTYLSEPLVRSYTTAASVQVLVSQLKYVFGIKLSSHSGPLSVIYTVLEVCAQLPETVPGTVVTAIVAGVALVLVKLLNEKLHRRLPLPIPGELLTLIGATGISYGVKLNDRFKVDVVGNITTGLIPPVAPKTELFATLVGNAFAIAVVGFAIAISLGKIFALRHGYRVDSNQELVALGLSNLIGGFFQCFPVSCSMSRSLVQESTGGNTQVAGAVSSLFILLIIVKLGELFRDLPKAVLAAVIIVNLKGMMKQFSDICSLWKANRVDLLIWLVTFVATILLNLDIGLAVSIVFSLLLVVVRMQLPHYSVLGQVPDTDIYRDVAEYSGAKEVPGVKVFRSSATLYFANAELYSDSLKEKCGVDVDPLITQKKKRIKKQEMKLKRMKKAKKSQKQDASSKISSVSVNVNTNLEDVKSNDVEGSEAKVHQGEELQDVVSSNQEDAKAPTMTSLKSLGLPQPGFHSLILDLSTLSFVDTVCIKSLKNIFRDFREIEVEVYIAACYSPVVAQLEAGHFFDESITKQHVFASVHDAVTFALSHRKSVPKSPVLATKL
# Procedure: (§1) Full-length mouse SLC26A6b and SLC26A 1 cDNAs were cloned into the Xenopus expression vector pGEMHE (Liman et al., 1992). The SLC26A6 and SLC26A1 expression constructs were linearized, and cRNA was transcribed in vitro using T7 RNA polymerase and a […] MMACHINE® transcription kit (Ambion, Inc. of Austin, Tex., United States of America). Defolliculated oocytes were injected with 25 nl to 50 nl of water or with a solution containing cRNA at a concentration of 0.5 μg/μl (12.5 ng to 25 ng per oocyte) using a Nanoliter-2000 injector (WPI Instruments of Sarasota, Fla., United States of America). Oocytes were incubated at 17° C. in 50% Leibovitz's L-15 media supplemented with penicillin/streptomycin (1000 units/ml) and glutamine for 2-3 days for uptake assays.
# (§2) For sulphate uptake assays, oocytes were pre-incubated for 20 minutes in chloride-free uptake medium (100 mM NMDG gluconate, 2 mM potassium gluconate, 1 mM calcium gluconate, 1 mM magnesium gluconate, 10 mM HEPES-Tris, pH 6.0 or pH 7.5 as indicated), followed by a 60-minute period for uptake in the same medium supplemented with 1 mM K2^35SO4 (40 μCi/ml). The cells were then washed three times in uptake buffer with 5 mM cold K2SO4 to remove tracer activity in the extracellular fluid. The oocytes were dissolved individually in 10% SDS, and tracer activity was determined by scintillation counting. Uptake of chloride, formate, and oxalate was assayed using the same chloride-free uptake solutions, substituting 8.3 mM ^36Cl, 500 μM [^14C]oxalate, or 50 μM [^14C]formate for labeled sulphate.
# (§3) For sulphate exchange and cis-inhibition experiments, the concentration of NMDG-gluconate in the uptake solution was adjusted to maintain isotonic osmolality, which was confirmed experimentally using a FISKE® osmometer (Fiske Associates, Inc. of Bethel, Conn., United States of America).
# [2] = biological target: T2, mouse SLC26A1 (Mus musculus, UniProt P58735, C691Y); test: Radiolabelled anion uptake in Xenopus oocytes expressing mouse SLC26A1; format: cell-based
# T2 construct: Full-length mouse SLC26A6b and SLC26A 1 cDNAs were cloned into the Xenopus expression vector pGEMHE; expressed in transfected cells; host or cells: Xenopus laevis oocytes injected with in vitro transcribed cRNA (pGEMHE)
# T2 sequence (P58735 1-704 C691Y): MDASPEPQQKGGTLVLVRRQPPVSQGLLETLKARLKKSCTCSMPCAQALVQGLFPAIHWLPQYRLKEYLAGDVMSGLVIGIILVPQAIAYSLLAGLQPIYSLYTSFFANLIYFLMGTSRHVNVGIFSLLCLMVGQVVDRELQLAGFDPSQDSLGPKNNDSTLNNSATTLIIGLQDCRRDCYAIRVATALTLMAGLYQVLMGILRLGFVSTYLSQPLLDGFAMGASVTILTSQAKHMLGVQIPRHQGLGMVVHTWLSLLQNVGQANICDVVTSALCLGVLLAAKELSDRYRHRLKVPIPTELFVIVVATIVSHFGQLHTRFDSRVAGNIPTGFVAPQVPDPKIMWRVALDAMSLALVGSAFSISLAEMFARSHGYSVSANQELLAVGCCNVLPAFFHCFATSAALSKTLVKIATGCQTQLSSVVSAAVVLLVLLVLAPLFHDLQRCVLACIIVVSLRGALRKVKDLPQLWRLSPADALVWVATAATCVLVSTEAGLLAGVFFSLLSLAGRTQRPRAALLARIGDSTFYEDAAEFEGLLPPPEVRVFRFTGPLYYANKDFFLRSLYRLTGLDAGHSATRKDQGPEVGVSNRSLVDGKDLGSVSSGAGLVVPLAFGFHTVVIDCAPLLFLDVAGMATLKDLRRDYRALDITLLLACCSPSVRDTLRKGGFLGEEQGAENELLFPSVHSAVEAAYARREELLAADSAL
# Procedure: as §1, §2, §3
compound,measurement,setting,value
O=C(O)C(=O)O [oxalate],oxalate uptake,[1]; 500 μM [14C]oxalate (FIG. 8A),487±50 pmol/oocyte/hour
same,exchange of SO4 2− with extracellular anion (trans-stimulation of 35SO4 efflux),"[1]; 10 mM of the anion, 30 minutes (FIG. 7C)",clearly mediated exchange
same,effect of extracellular anion on SO4 2− transport via SLC26A1,"[2]; 25 mM of the anion (FIG. 9A, 6C)",strongly cis-inhibitory
same,oxalate uptake,[2]; SLC26A1-injected oocytes (FIG. 8A),72±2 pmol/oocyte/h

# — US20060014940A1, “Cloning and characterization of slc26a6, slc26a1, and slc26a2 anion exchangers” (priority 2002, published 2006)
